Reference: patent US20210003596A1, “CHEMILUMINESCENT ANDROSTENEDIONE CONJUGATES” (Siemens Healthcare Diagnostics Inc., priority 2017, published 2021)

Tests used:
Experiment in all cases: Competitive chemiluminescent immunoassay (ADVIA Centaur), binding of A4-AE conjugates to antibody on solid phase
Set-up in all cases: species or system sheep; key: a “+” indicates appreciable binding of the specified A4-AE conjugate to the specified antibody; a “−” indicates no appreciable binding was observed
[1] = system: monoclonal androstenedione antibody 3C3; settings: binding of A4-AE conjugate to 3C3 antibody, chemiluminescence; lite reagent 20 ng/mL tracer
Procedure: (§1) Evaluation of A4-AE conjugates was performed using the ADVIA Centaur family of immunoassay analyzers (available from Siemens Healthcare Diagnostics Inc., Tarrytown, N.Y.) using a competitive assay format which utilizes a solid phase reagent and a lite reagent. The lite reagent comprises 20 ng/mL of an A4-AE tracer compound. The solid reagent comprises superparamagnetic beads (Dynabeads® M-270 Streptavidin available from ThermoFisher Scientific) labeled with biotinylated monoclonal anti-A4 antibody. Biotinylated sheep monoclonal androstenedione antibodies 3C3, 3H10, or 4G8 (available from Bioventix, UK) are introduced to the streptavidin coated superparamagnetic beads in order to produce solid phase particles attached to the antibody. Solid phase particles mixed with A4-AE in the absence of A4, results in solid phase binding complexes with the A4-AE compounds. When the […], competition for formation of a binding complex at each antibody occurs between A4 and A4-AE conjugates. […] Therefore, an increase in androstenedione concentration in measured samples correlates with a decrease in chemiluminescence of separated and washed solid phase particles binding complexes. Chemiluminescence of the separated solid phase particle binding complexes is induced by addition of an acidic solution (0.5% Peroxide/0.45% Nitric Acid (vol/vol)) followed by a basic solution (0.25N […]/0.45% ARQUAD® 16-50 (w/v)) and measured. Reagent volumes, concentrations, and assay parameters were otherwise identical in each experiment other than variation of the A4-AE tracer conjugate measured. Samples of androstenedione used in the lite reagent were prepared using a human serum albumin-based matrix (available from Bioresource Technology, Inc.) with the androstenedione sample concentrations shown in FIGS. 2A-2D (ng/mL).
(§2) Chemiluminescence was monitored for a variety of A4-AE conjugates. Table 2 below and the corresponding FIGS. 2A-2D summarize the results of chemiluminescent experiments on several A4-AE conjugates which may be synthesized as described in the indicated Example number. In Table 3 a “+” indicates appreciable binding of the specified A4-AE conjugate to the specified antibody and a “−” indicates no appreciable binding was observed.

[2] = system: monoclonal androstenedione antibody 4G8; settings: binding of A4-AE conjugate to 4G8 antibody, chemiluminescence; lite reagent 20 ng/mL tracer
Procedure: as §1, §2

[3] = system: monoclonal androstenedione antibody 3H10; settings: binding of A4-AE conjugate to 3H10 antibody, chemiluminescence; lite reagent 20 ng/mL tracer
Procedure: as §1, §2

Row | Molecule | 3C3 [1] | 4G8 [2] | 3H10 [3]
1 | Cc1cc(C(=O)NCCC[N+](C)(CCCNC(=O)CON=C2CCC3C4CCC5=CC(=O)CCC5(C)C4CCC23C)CCCS(=O)(=O)[O-])cc(C)c1OC(=O)c1c2ccccc2[n+](CCCS(=O)(=O)[O-])c2ccccc12 (stereo not drawn) [compound 2, A4(17)-CMO-Z-ZAE] | − | − | −
2 | Cc1cc(C(=O)NCCC[N+](C)(CCCNC(=O)COC[C@]23CCC(=O)C=C2CCC2C3CC[C@]3(C)C(=O)CCC23)CCCS(=O)(=O)[O-])cc(C)c1OC(=O)c1c2ccccc2[n+](CCCS(=O)(=O)[O-])c2ccccc12 (stereo partly drawn) [compound 3, A4(19)-CME-NH-Z-ZAE] | − | + | +
3 | Cc1cc(C(=O)NCCC[N+](C)(CCCNC(=O)CCC(=O)OC2CC3C4CCC(=O)C4(C)CCC3C3(C)CCC(=O)C=C23)CCCS(=O)(=O)[O-])cc(C)c1OC(=O)c1c2ccccc2[n+](CCCS(=O)(=O)[O-])c2ccccc12 (stereo not drawn) [compound 4, A4(6β)-hemisuccinate-NH-Z-ZAE] | + | + | +
4 | Cc1cc(C(=O)NCCC[N+](C)(CCCNC(=O)OC2CC3C4CCC(=O)C4(C)CCC3C3(C)CCC(=O)C=C23)CCCS(=O)(=O)[O-])cc(C)c1OC(=O)c1c2ccccc2[n+](CCCS(=O)(=O)[O-])c2ccccc12 (stereo not drawn) [compound 5, A4(6β)-carbamate-NH-Z-ZAE] | − | − | −
5 | Cc1cc(C(=O)NCCC[N+](C)(CCCNC(=O)CCSC2CC3=CC(=O)CCC3(C)C3CCC4(C)C(=O)CCC4C23)CCCS(=O)(=O)[O-])cc(C)c1OC(=O)c1c2ccccc2[n+](CCCS(=O)(=O)[O-])c2ccccc12 (stereo not drawn) [compound 6, A4(7α)-CETE-NH-Z-ZAE] | + | + | +
6 | A4(3)-CMO-Z-ZAE [compound 1] | + | − | +
